Converted amounts (≈) assume the structure as drawn. Where a name gives a salt, the structure may show the parent alone.

Series [1] has as its system isolated auricles of guinea pigs. The series can be described thus: Reduction of the maximum driving frequency (MDF) of isolated auricles of guinea pigs. Format: cell-based, guinea pig. Conditions: Cavia porcellus; isolated left auricles; tyrode solution, 37° C., pH 7.4; cumulative addition; MDF 5 and 10 minutes after adding; read-out: EC50: concentration causing a 50% decrease of the maximum driving frequency (MDF). How it is done:
1. reduction of the maximum driving frequency of isolated auricles of guinea pigs The tests were carried out using an adaption of the method of DAWES (Brit. J. Pharmacol.1, 90, 1946). Guinea pigs of both sexes, body weight between 300 and 400 gm were killed by a blow on the neck. The left auricles were quickly removed and put into an organ bath of 100 ml. The organ bath was filled with tyrode solution, which was infused with a mixture of 98% of oxygen and 2% of carbon dioxide. […] The auricles were stimulated with square wave impulses of 1 millisecond duration at a voltage 200% higher than the threshold voltage and a frequency of 1 Hz (Hugo Sachs, Stimulator II). A weight of 0.4 gm was applied to the auricles and the contractions were continuously measured isometrically by means of a force displacement transducer (Grass Ft 03) and recorded on a Grass polygraph (model 5). After sufficient equilibration time (15 min.) the stimulation rate was increased every 10 seconds by 1 Hz until the maximum driving frequency (MDF) was reached. The MDF is defined as the stimulation frequency, where every stimulation is still answered by a contraction. The MDF was determined before and 5 and 10 minutes after adding the test compound. The test compound was added cumulatively to the organ bath. The concentration causing a 50% decrease of the MDF (EC50) was calculated from a dose-response curve.

Series [2] deals with adrenalin-induced ventricular arrhythmia in dogs. Nature of the series: Prevention of ventricular arrhythmia provoked by adrenalin in dogs under halothane anesthesia. Format: in vivo, dog. Conditions: Canis lupus familiaris, iv, 5 min, i.v., 4 dogs, adrenalin 5 minutes after compound, read-out: mean dose that abolished the adrenalin arrhythmias. The method, then:
(§1) 2. prevention of ventricular arrhythmia provoked by adrenalin in dogs under halothane anesthesia
(§2) According to the method described by ALLEN, et al in Brit. J. Pharmacol. 45, 561 (1972), dogs were anesthetized by subcutaneous injection of 0.5 mgm/kg morphine sulfate and by intravenous injection of 20 mg/kg pentobarbitone. The animals were given artificial respiration with room air from a Starling pump via a cuffed endotracheal tube. The electrocardiogram (lead II) was recorded on a Devices recorder (Type M 8 or M 4). The test compound was injected through a polyethylene catheter inserted into a foreleg vein.
(§3) Observations were made on 4 dogs. The artificial respiration was continued adding 1% halothane to the room air. 15 minutes later adrenalin was injected at doses of 0.2 and increased to 0.4, 0.8, 1.2, 1.6, 2.0, 2.4 and 2.8 […], at intervals of 7 to 10 minutes between each dose, until ventricular tachycardia had been produced. After the arrhythmia-producing dose of adrenalin had been established, compound A was injected intravenously. 5 minutes later the adrenalin injection was repeated, using the same dose. The dose of the test compound was increased to obtain the minimum dose which prevented the adrenalin-induced arrhythmia.

The subject of series [3] is ouabain-induced ventricular arrhythmia in dogs. Nature of the series: Suppression of ouabain-induced ventricular arrhythmia in dogs. Format: in vivo, dog. Conditions: 12 dogs. The method, then:
(§4) 3. Suppression of ouabain-induced ventricular arrhythmia in dogs
(§5) According to the method described by ALLEN, et al. (supra), dogs were anesthetized by subcutaneous injection of morphine sulfate (0.5 mgm/kg), followed by intravenous injection of pentobarbitone (20 mgm/kg). The animals were given artificial respiration with room air from a Starling pump via a cuffed endotracheal tube. The electrocardiogram (lead II) was recorded on a Devices recorder (Type M8 or M 4). Test compound administration was through a polyethylene catheter inserted in a foreleg vein.
(§6) Observations were made on 12 dogs. Ventricular tachycardia was produced by intravenous injection of ouabain, first 40 mgm/kg, followed after 30 minutes by 20 mgm/kg and by 10 mgm/kg every 15 minutes until ventricular tachycardia was established. 10 minutes after the last ouabain injection, the test compound was continuously infused intravenously from a motor-driven syringe at a rate of 0.2 mgm/kg per minute, until sinus rhythm returned. The mean dose of ouabain to produce ventricular tachycardia was 60 ± 2.8 mg/kg. The mean dose of compound A required to convert the ventricular tachycardia to sinus rhythm was 0.76 ± 0.18 mg/kg i.v.

Series [4] can be described thus: Acute i.v. toxicity in mice. Conditions: mouse, in vivo, iv, tail vein, LITCHFIELD and WILCOXON, read-out: median lethal dose (LD50). How it is done: 4. Acute i.v. toxicity in mice
Mice of both sexes having a body weight of 20 to 25 gm were used. The test compound was dissolved in distilled water and injected into the mice with a volume of 0.1 ml/10 gm body weight by way of a tail vein. Each dose was injected into 10 mice. The number of dead animals was determined and the median lethal dose (LD50) was calculated using the method of LITCHFIELD and WILCOXON [J. Pharmac. Exp. Ther. 96, 99 (1949)].

A further series is described as follows: in vivo. Format: in vivo, dog. Conditions: dog, in vivo, iv. The method, then: as §1, §2, §3, §4, §5, §6
(§7) The lowest therapeutic dose was 0.1 mgm/kg i.v., which is about 100 to 200 times smaller than the mean toxic dose.

The next series relates to anesthetized dogs. Nature of the series: animal or person. Format: in vivo, dog. How it is done:
as §1, §2, §3, §4, §5, §6, §7

For `C(=Cc1ccccc1OCCN1CCOCC1)c1ccccn1` [C, 2-[0-(β-Morpholino-ethoxy)-styryl]-pyridine dihydrochloride], the EC50 in series [1] stood at 33 µg/mL.
On the same count and under the same terms, with `CC(=Cc1ccccc1OCCN(C)C)c1ccccn1` [D, 1-[o-(β-Dimethylamino-ethoxy)-phenyl]-2-(pyridyl-2)-propene-1 monohydrochloride] the figure was 3.1 µg/mL.
As to `CN(C)CCOc1ccccc1C=Cc1ccccn1.Cl` [A, 2-[o-(β-Dimethylamino-ethoxy)-styryl]-pyridine monohydrochloride], in series [1], the EC50 was determined as 3.8 µg/mL. For the same compound, the minimal effective dose in series [2] stood at 0.18 ± 0.04 mg/kg; in series [3] (Canis lupus familiaris, iv, i.v. infusion 0.2 mgm/kg per minute, ouabain-induced tachycardia, read-out: mean dose required to convert the ventricular tachycardia to sinus rhythm), 0.76 ± 0.18 mg/kg; in the series with anesthetized dogs (Canis lupus familiaris, iv, read-out: lowest therapeutic dose) it was 0.1 mg/kg. In series [4], the 50% lethal dose (LD50) stood at 25 mg/kg. Also, in “in vivo”, the selectivity ratio was in the range of 100 to 200. For the same compound, the “antiarrhythmic effectiveness (in words)” value in the series with anesthetized dogs (anesthetized dogs) is given as “very effective antiarrhythmic compound”. Further, the “therapeutic ratio (in words)” value in the series with anesthetized dogs (dog, in vivo, iv) is recorded as “excellent therapeutic ratio”.
As for `Cc1cccc(C=Cc2ccccc2OCCN(C)C)n1.Cl` [Compound E, 2-[o-(β-Dimethylamino-ethoxy)-styryl]-6-methyl-pyridine hydrochloride], the EC50 in series [1] came to 6.3 µg/mL.
Still for that read-out and setting: the same measure for `CNCCOc1ccccc1C=Cc1ccccn1` [B, 2-[0-(β-Methylamino-ethoxy)-styryl]-pyridine dihydrochloride]: 8.3 µg/mL.
For `C[C@@H]1O[C@@H](O[C@H]2C[C@@H](O)[C@]3(CO)[C@H]4[C@H](O)C[C@]5(C)[C@@H](C6=CC(=O)OC6)CC[C@]5(O)[C@@H]4CC[C@]3(O)C2)[C@H](O)[C@H](O)[C@H]1O` [ouabain, reference compound], the “mean dose of ouabain to produce ventricular tachycardia” value in series [3] (intravenous) was 60 ± 2.8 mg/kg.
Turning to `CN(C)CCOc1ccccc1C=Cc1ccccc1.Cl` [I, 2-(2-Dimethylamino-ethoxy)-stilbene hydrochloride], the EC50 in series [1] came out at 10 µg/mL.
The same measure, in the same setting: with `CN(C)CCOc1ccccc1C=Cc1nc2ccccc2n1C.Cl.Cl` [G, 2-[o-(β-Dimethylamino-ethoxy)-styryl]-1-methyl-benzimidazole dihydrochloride] the figure was 9 µg/mL; with `CN(C)CCOc1ccccc1C=Cc1ccc2ccccc2n1.Cl` [F, 2-[o-(β-Dimethylamino-ethoxy)-styryl]-quinoline hydrochloride], 10 µg/mL.
On the same count and under the same terms, the same measure for `CN(C)CCOc1ccccc1C=Cc1cnccn1` [H, 2-[o-(β-Dimethylamino-ethoxy)-styryl] -pyrazine]: 25 µg/mL (≈ 92.8 µM).

Source of the values: patent publication US4130650A, “Antiarrhythmic method of use” (priority 1976, dated 1978).
